Measurements as given in the NIST ThermoML archive (doi:10.1016/j.tca.2013.03.008).

Test: xn = mol fraction of the nth substance listed
Details: 101 kPa, Liquid; for viscosity: Capillary tube (Ostwald / Ubbelohde) method; for mass density: Vibrating tube method

CCOC(=O)CCl [ethyl chloroethanoate] + CCC(C)O
Details	mass density, 298.15 K [kg/m3]	mass density, 308.15 K [kg/m3]	mass density, 318.15 K [kg/m3]	viscosity, 298.15 K [mPa·s]	viscosity, 308.15 K [mPa·s]	viscosity, 318.15 K [mPa·s]
x2 = 0	1144.11	1131.46	1118.74	1.095	0.934	0.816
x2 = 0.1008	1111.91	1099.43	1086.98	1.055	0.895	0.778
x2 = 0.204	1078.95	1066.72	1054.42	1.041	0.877	0.755
x2 = 0.2885	1051.67	1039.71	1027.56	1.033	0.875	0.756
x2 = 0.3625	1027.45	1015.7	1003.8	1.048	0.88	0.753
x2 = 0.45	998.34	986.92	975.3	1.107	0.895	0.759
x2 = 0.5384	968.29	957.21	945.94	1.183	0.945	0.791
x2 = 0.6138	942.27	931.52	920.57	1.246	0.987	0.817
x2 = 0.6906	915.31	904.95	894.31	1.332	1.063	0.866
x2 = 0.7724	886.17	876.24	865.99	1.489	1.182	0.947
x2 = 0.8541	856.59	847.12	837.33	1.789	1.367	1.089
x2 = 0.9197	832.49	823.43	814.03	2.183	1.611	1.225

CCC(=O)CC [pentan-3-one] + CCC(C)O
Details	mass density, 298.15 K [kg/m3]	mass density, 308.15 K [kg/m3]	mass density, 318.15 K [kg/m3]	viscosity, 298.15 K [mPa·s]	viscosity, 308.15 K [mPa·s]	viscosity, 318.15 K [mPa·s]
x1 = 0.0848	803.03	794.48	785.52	2.069	1.539	1.172
x1 = 0.1511	803.42	794.8	785.78	1.602	1.246	0.976
x1 = 0.2353	803.97	795.22	786.14	1.229	0.986	0.802
x1 = 0.3023	804.42	795.58	786.43	1.039	0.854	0.711
x1 = 0.3793	804.94	795.99	786.77	0.879	0.734	0.622
x1 = 0.4676	805.54	796.47	787.16	0.761	0.637	0.55
x1 = 0.4927	805.71	796.61	787.27	0.731	0.612	0.531
x1 = 0.5536	806.12	796.95	787.54	0.657	0.57	0.499
x1 = 0.6269	806.62	797.36	787.87	0.6	0.524	0.461
x1 = 0.7129	807.21	797.84	788.26	0.536	0.482	0.429
x1 = 0.8104	807.89	798.4	788.7	0.494	0.446	0.403
x1 = 0.9043	808.59	798.96	789.15	0.466	0.419	0.378
x1 = 1	809.38	799.55	789.63	0.442	0.398	0.362
